In PubChem BioAssay AID1963447 (Molecular Pharmacology Branch, DTP, NCI, 2024):

System: 885512-296-R-J2-PDC complex spheroid growth, % test/control
Assay: Anticancer human tumor 885512-296-R-J2-PDC patient-derived breast carcinoma cell line growth inhibition [Asc]
Settings: for IC50: curve of first compound; for viability, T/C: stronger effect = lower value; active means viability on the fitted dose curve at most 10% of control; inactive means the rest
In short: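 Tumor cells were grown as multicellular spheroids with stromal HUVEC and mesenchymal stem cells and treated singly or in combination. Concentrations fell in half-log steps from the clinical Cmax, or from 10 microM where none was known.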

[1] = second compound 0.01 µM, first compound 0.00316 µM
[2] = second compound 0.01 µM, first compound 0.01 µM
[3] = second compound 0.01 µM, first compound 0.0316 µM
[4] = second compound 0.01 µM, first compound 0.1 µM
[5] = second compound 0.0316 µM, first compound 0.00316 µM
[6] = second compound 0.0316 µM, first compound 0.01 µM
[7] = second compound 0.0316 µM, first compound 0.0316 µM
[8] = second compound 0.0316 µM, first compound 0.1 µM
[9] = second compound 0.1 µM, first compound 0.00316 µM
[10] = second compound 0.1 µM, first compound 0.01 µM
[11] = second compound 0.1 µM, first compound 0.0316 µM
[12] = second compound 0.1 µM, first compound 0.1 µM
[13] = second compound 0.316 µM, first compound 0.00316 µM
[14] = second compound 0.316 µM, first compound 0.01 µM
[15] = second compound 0.316 µM, first compound 0.0316 µM
[16] = second compound 0.316 µM, first compound 0.1 µM
[17] = second compound 1 µM, first compound 0.00316 µM
[18] = second compound 1 µM, first compound 0.01 µM
[19] = second compound 1 µM, first compound 0.0316 µM
[20] = second compound 1 µM, first compound 0.1 µM
[21] = second compound 0.01 µM, first compound 0.316 µM
[22] = second compound 0.01 µM, first compound 1 µM
[23] = second compound 0.0316 µM, first compound 0.316 µM
[24] = second compound 0.0316 µM, first compound 1 µM
[25] = second compound 0.1 µM, first compound 0.316 µM
[26] = second compound 0.1 µM, first compound 1 µM
[27] = second compound 0.316 µM, first compound 0.316 µM
[28] = second compound 0.316 µM, first compound 1 µM
[29] = second compound 1 µM, first compound 0.316 µM
[30] = second compound 1 µM, first compound 1 µM
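Further: spheroids exposed to compounds for seven days.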
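Wherever viability, T/C is given: 100% = DMSO vehicle control wells.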

Cc1nc(N2CCC3(CC2)COC(C)C3N)c(CO)nc1Sc1ccnc(N)c1Cl (stereo not given) + CCN1C(C(=O)NC23CCC(C(=O)O)(CC2)CC3)C(c2cccc(Cl)c2F)C2(C(=O)Nc3cc(Cl)ccc32)C12CCCCC2
361 nM: IC50 (second compound 0.03 µM)
inactive: viability, T/C (second compound 0.03 µM, first compound 0.00949 µM) 90.6% | viability, T/C (second compound 0.03 µM, first compound 0.03 µM) 79% | viability, T/C (second compound 0.03 µM, first compound 0.0949 µM) 59.8% | viability, T/C (second compound 0.03 µM, first compound 0.3 µM) 51.6% | viability, T/C (second compound 0.03 µM, first compound 0.949 µM) 45.2% | viability, T/C (second compound 0.03 µM, first compound 3 µM) 35.4% | viability, T/C (second compound 0.0949 µM, first compound 0.00949 µM) 96.5% | viability, T/C (second compound 0.0949 µM, first compound 0.03 µM) 78.9% | viability, T/C (second compound 0.0949 µM, first compound 0.0949 µM) 51.2% | viability, T/C (second compound 0.0949 µM, first compound 0.3 µM) 45.4% | viability, T/C (second compound 0.0949 µM, first compound 0.949 µM) 41.3% | viability, T/C (second compound 0.0949 µM, first compound 3 µM) 35.5% | viability, T/C (second compound 0.3 µM, first compound 0.00949 µM) 82.3% | viability, T/C (second compound 0.3 µM, first compound 0.03 µM) 60.2% | viability, T/C (second compound 0.3 µM, first compound 0.0949 µM) 51.6% | viability, T/C (second compound 0.3 µM, first compound 0.3 µM) 53.1% | viability, T/C (second compound 0.3 µM, first compound 0.949 µM) 42.8% | viability, T/C (second compound 0.3 µM, first compound 3 µM) 36.9% | viability, T/C (second compound 0.949 µM, first compound 0.00949 µM) 59.3% | viability, T/C (second compound 0.949 µM, first compound 0.03 µM) 51.1% | viability, T/C (second compound 0.949 µM, first compound 0.0949 µM) 46.9% | viability, T/C (second compound 0.949 µM, first compound 0.3 µM) 46.2% | viability, T/C (second compound 0.949 µM, first compound 0.949 µM) 39.1% | viability, T/C (second compound 0.949 µM, first compound 3 µM) 35.2% | viability, T/C (second compound 3 µM, first compound 0.00949 µM) 39.3% | viability, T/C (second compound 3 µM, first compound 0.03 µM) 35% | viability, T/C (second compound 3 µM, first compound 0.0949 µM) 28.1% | viability, T/C (second compound 3 µM, first compound 0.3 µM) 32% | viability, T/C (second compound 3 µM, first compound 0.949 µM) 30.3% | viability, T/C (second compound 3 µM, first compound 3 µM) 27.1%
165 nM: IC50 (second compound 0.3 µM)
< 9.49 nM: IC50 (second compound 3 µM)
59.8 nM: IC50 (second compound 0.949 µM)
134 nM: IC50 (second compound 0.0949 µM)

Cn1ncnc1[C@H]1c2n[nH]c(=O)c3cc(F)cc(c23)N[C@@H]1c1ccc(F)cc1 + CNC(C)C(=O)NC1CN(S(=O)(=O)c2cccc(S(=O)(=O)N3CCC4CCC(C(=O)NC(c5ccccc5)c5ccccc5)N4C(=O)C(NC(=O)C(C)NC)C3)c2)CCC2CCC(C(=O)NC(c3ccccc3)c3ccccc3)N2C1=O
21.3 nM: IC50 (second compound 1 µM)
26.2 nM: IC50 (second compound 0.01 µM)
23.4 nM: IC50 (second compound 0.1 µM)
15.3 nM: IC50 (second compound 0.316 µM)
inactive: viability, T/C (second compound 0.01 µM, first compound 0.000316 µM) 86% | viability, T/C (second compound 0.01 µM, first compound 0.001 µM) 71.1% | viability, T/C [1] 73.5% | viability, T/C [2] 63.4% | viability, T/C [3] 47.7% | viability, T/C [4] 26.2% | viability, T/C (second compound 0.0316 µM, first compound 0.000316 µM) 98.5% | viability, T/C (second compound 0.0316 µM, first compound 0.001 µM) 96.5% | viability, T/C [5] 92.3% | viability, T/C [6] 60.5% | viability, T/C [7] 40.1% | viability, T/C [8] 31.2% | viability, T/C (second compound 0.1 µM, first compound 0.000316 µM) 102% | viability, T/C (second compound 0.1 µM, first compound 0.001 µM) 100% | viability, T/C [9] 90.8% | viability, T/C [10] 70.5% | viability, T/C [11] 42.9% | viability, T/C [12] 22.4% | viability, T/C (second compound 0.316 µM, first compound 0.000316 µM) 98% | viability, T/C (second compound 0.316 µM, first compound 0.001 µM) 100% | viability, T/C [13] 94.6% | viability, T/C [14] 56% | viability, T/C [15] 42.4% | viability, T/C [16] 27.6% | viability, T/C (second compound 1 µM, first compound 0.000316 µM) 108% | viability, T/C (second compound 1 µM, first compound 0.001 µM) 97.1% | viability, T/C [17] 98.2% | viability, T/C [18] 65.6% | viability, T/C [19] 42.5% | viability, T/C [20] 26.2%
17.6 nM: IC50 (second compound 0.0316 µM)

O=C(c1cc(Cc2n[nH]c(=O)c3ccccc23)ccc1F)N1CCN(C(=O)C2CC2)CC1 + CNC(C)C(=O)NC1CN(S(=O)(=O)c2cccc(S(=O)(=O)N3CCC4CCC(C(=O)NC(c5ccccc5)c5ccccc5)N4C(=O)C(NC(=O)C(C)NC)C3)c2)CCC2CCC(C(=O)NC(c3ccccc3)c3ccccc3)N2C1=O
4110 nM: IC50 (second compound 0.01 µM)
3930 nM: IC50 (second compound 0.1 µM)
2960 nM: IC50 (second compound 0.0316 µM)
3850 nM: IC50 (second compound 0.316 µM)
inactive: viability, T/C [3] 95.6% | viability, T/C [4] 96.4% | viability, T/C [21] 95.6% | viability, T/C [22] 94.5% | viability, T/C (second compound 0.01 µM, first compound 3.16 µM) 60.7% | viability, T/C (second compound 0.01 µM, first compound 10 µM) 13.5% | viability, T/C [7] 97.1% | viability, T/C [8] 101% | viability, T/C [23] 99.6% | viability, T/C [24] 84% | viability, T/C (second compound 0.0316 µM, first compound 3.16 µM) 48.2% | viability, T/C (second compound 0.0316 µM, first compound 10 µM) 14.4% | viability, T/C [11] 97.9% | viability, T/C [12] 98.2% | viability, T/C [25] 106% | viability, T/C [26] 86.2% | viability, T/C (second compound 0.1 µM, first compound 3.16 µM) 59.8% | viability, T/C (second compound 0.1 µM, first compound 10 µM) 10.6% | viability, T/C [15] 101% | viability, T/C [16] 106% | viability, T/C [27] 102% | viability, T/C [28] 89.3% | viability, T/C (second compound 0.316 µM, first compound 3.16 µM) 58.1% | viability, T/C (second compound 0.316 µM, first compound 10 µM) 12% | viability, T/C [19] 96.1% | viability, T/C [20] 97.8% | viability, T/C [29] 95.4% | viability, T/C [30] 87.2% | viability, T/C (second compound 1 µM, first compound 3.16 µM) 55% | viability, T/C (second compound 1 µM, first compound 10 µM) 13.1%
3630 nM: IC50 (second compound 1 µM)

O=C(c1ccc(F)c(F)c1Nc1ccc(I)cc1F)N1CC(O)([C@@H]2CCCCN2)C1 + CNC(C)C(=O)NC1CN(S(=O)(=O)c2cccc(S(=O)(=O)N3CCC4CCC(C(=O)NC(c5ccccc5)c5ccccc5)N4C(=O)C(NC(=O)C(C)NC)C3)c2)CCC2CCC(C(=O)NC(c3ccccc3)c3ccccc3)N2C1=O
112 nM: IC50 (second compound 0.1 µM)
159 nM: IC50 (second compound 1 µM)
inactive: viability, T/C [1] 92.1% | viability, T/C [2] 80.5% | viability, T/C [3] 59% | viability, T/C [4] 50.2% | viability, T/C [21] 37.5% | viability, T/C [22] 15.1% | viability, T/C [5] 98.3% | viability, T/C [6] 84.3% | viability, T/C [7] 78% | viability, T/C [8] 48% | viability, T/C [23] 32% | viability, T/C [24] 16.6% | viability, T/C [9] 99.5% | viability, T/C [10] 95.8% | viability, T/C [11] 78.6% | viability, T/C [12] 47.8% | viability, T/C [25] 35.1% | viability, T/C [26] 15.9% | viability, T/C [13] 102% | viability, T/C [14] 99.5% | viability, T/C [15] 82.5% | viability, T/C [16] 53.8% | viability, T/C [27] 31.4% | viability, T/C [28] 16.5% | viability, T/C [17] 103% | viability, T/C [18] 96.2% | viability, T/C [19] 89.7% | viability, T/C [20] 60.9% | viability, T/C [29] 32.8% | viability, T/C [30] 16.8%
94 nM: IC50 (second compound 0.01 µM)
126 nM: IC50 (second compound 0.316 µM)
107 nM: IC50 (second compound 0.0316 µM)
